# Source: patent US20160287534A1, “METHODS FOR REVERSING FIBROSIS” (The University of Connecticut, priority 2015, published 2016)
# Tests used:
# Assay type in all cases: cell-based
# [1] = system: LX-2 cells; test: qRT-PCR of fibrogenic genes in LX-2 cells (Example 2)
# Procedure: (§1) Mouse primary HSCs were isolated from C57BL/6J, nuclear erythroid 2-related factor 2 (NRF2) knockout (Nrf2−/−), and wild-type mice using a pronase/collagenase digestion method as described herein Example 1. The cells were then cultured on untreated petri dishes (BD Falcon, Franklin Lakes, N.J.), and maintained in a low-glucose DMEM medium supplemented with 10% FBS, 4 mM L-glutamine, and P/S (100 U/100 μg per mL). Human primary HSCs (Zen-Bio, Research Triangle Park, N.C.) were maintained in a low-glucose DMEM medium containing 2% FBS, 4 mM L-glutamine, 1× nonessential amino acids, 1× vitamins, and P/S (100 U/100 μg per mL). The cells were seeded on a collagen-coated plate for experiments (Sarstedt, Newton, N.C.). LX-2 cells, kindly provided by Dr. Scott Friedman at the Icahn School of Medicine at Mount Sinai (New York, N.Y.), were maintained in a low-glucose DMEM supplemented with 2% FBS, 4 mM L-glutamine, and P/S (100 U/100 μg per mL). All cells were cultured in a 37° C. humidified cell culture chamber with 5% CO2. Cell culture supplies were purchased from HyClone unless stated otherwise (Thermo Scientific, Logan, Utah).
# Total RNA extraction, cDNA synthesis, and qRT-PCR were conducted using a Bio-Rad CFX96 Real-Time system (Bio-Rad, Hercules, Calif.) as previously described (Id.). Primer sequences will be available upon request. […]
# [2] = system: Smad3; test: Western blot of Smad3 phosphorylation and nuclear translocation in LX-2 cells
# Procedure: Whole cell lysates were prepared to conduct Western blot as we previously described (Id.) using antibodies against α-SMA (Sigma, St. Louis, Mo.), Smad3 (Millipore, Billerica, Mass.), and phospho-Smad3 (Cell Signaling, Danvers, Mass.). β-Tubulin (Santa Cruz Biotechnology, Santa Cruz, Calif.) or β-actin (Sigma, St. Louis, Mo.) was used as a loading control. For Western blot of nuclear and cytoplasmic cell fractions, the fractions were prepared using a nuclear extraction kit (Cayman, Ann Arbor, Mich.) as previously described (see Ku et al. Biochim. Biophys. Acta Gen. Subj. 2013, vol. 1830, pp. 2981-2988). Glyceraldehyde 3-phosphate dehydrogenase (GAPDH) (Santa Cruz Biotechnology, Santa Cruz, Calif.) and lamin B (Santa Cruz Biotechnology) were used as a loading control for cytoplasmic and nuclear fractions, respectively. Blots were developed using Westpico horseradish peroxidase chemiluminescence (Pierce, Rockford, Ill.) and images were analyzed using a Chemidoc XRS+system (Bio-Rad) and Image Lab software (Bio-Rad).
# [3] = system: human primary HSCs; test: qRT-PCR of fibrogenic genes in human primary HSCs
# Procedure: as §1
# ASTX, provided by Fuji Chemical Industry Co., Ltd. (Toyama, Japan), was prepared in DMSO as described herein in Example 1. […]
# [4] = system: HDAC9 and myocyte enhancer factor 2 (MEF2); test: HDAC and MEF2 mRNA and protein expression in mouse primary HSCs
# Procedure: (§2) ASTX, provided by Fuji Chemical Industry Co., Ltd. (Toyama, Japan), was prepared in DMSO as described herein in Example 1. After plated on an uncoated dish, mouse qHSCs were incubated with 25 μM ASTX during activation. aHSCs, which were prepared by culturing qHSCs on an uncoated dish for 6 d, were incubated with 25 μM ASTX for 2 or 4 more days. Also, cells were incubated with 3 μM tert-butyl hydrogen peroxide (tBHP, Thermo Scientific) for 12 h with or without 25 μM ASTX. Medium containing ASTX was replenished daily and DMSO vehicle control was always run in parallel. Human primary HSC were treated with 25 μM ASTX for 24 h, after which they were activated by 3 ng/mL of TGFβ1 (Peprotech, Rocky Hill, N.J.) for 24 h.
# (§3) Total RNA extraction, cDNA synthesis, and qRT-PCR were conducted using a Bio-Rad CFX96 Real-Time system (Bio-Rad, Hercules, Calif.) as previously described (Id.). Primer sequences will be available upon request.
# (§4) Whole cell lysates and human tissue protein extracts were prepared and Western blot analysis were performed as described (Id.) using antibodies against α-SMA (Sigma, St. Louis, Mo.), HDAC3 (Santa Cruz Biotechnology, Santa Cruz, Calif.), HDAC4 (Santa Cruz Biotechnology), HDAC9 (Abcam, Cambridge, Mass.; Novus Biologicals, Littleton, Colo.), Col1A1 (Sigma). β-tubulin (Santa Cruz) or glyceraldehyde 3-phosphate dehydrogenase (GAPDH) (Santa Cruz) was used as a loading control.
# [5] = system: α-SMA; test: Western blot and immunostaining of α-SMA protein in LX-2 cells; details: 25 μM ASTX (FIGS. 3B, 3C)
# Procedure: LX-2 cells were kindly provided by Dr. Scott Friedman at the Icahn School of Medicine at Mount Sinai (New York, N.Y.). Cells were maintained in low-glucose DMEM containing 2% FBS, 4 mM 1-glutamine, 100 U/mL penicillin and 100 μg/mL streptomycin in a 37° C. humidified cell culture chamber providing 5% CO2. LX-2 cells were incubated with varying concentrations of ASTX for 12 or 24 h, and subsequently activated by 2 ng/mL of TGFβ1 (Peprotech, Rocky Hill, N.J.) for 1 to 24 h. Primary mouse HSCs were plated on untreated petri dishes (BD Falcon, Franklin Lakes, N.J.) and maintained in low-glucose DMEM supplemented with 10% FBS, 4 mM L-glutamine, 100 U/mL penicillin and 100 μg/mL streptomycin in a 37° C. humidified cell culture chamber under 5% CO2. ASTX (25 μM) was added at day 2 or day 4 after plating until day 6 with daily media change. […]
# Whole cell lysates were prepared to conduct Western blot as we previously described (Id.) using antibodies against α-SMA (Sigma, St. Louis, Mo.), Smad3 (Millipore, Billerica, Mass.), and phospho-Smad3 (Cell Signaling, Danvers, Mass.). β-Tubulin (Santa Cruz Biotechnology, Santa Cruz, Calif.) or β-actin (Sigma, St. Louis, Mo.) was used as a loading control. […] Blots were developed using Westpico horseradish peroxidase chemiluminescence (Pierce, Rockford, Ill.) and images were analyzed using a Chemidoc XRS+system (Bio-Rad) and Image Lab software (Bio-Rad). […]
# [6] = system: mouse primary HSCs; test: Activation of mouse primary qHSCs (Example 2): morphology, qRT-PCR, Western blot
# Procedure: as §1, §2, §3, §4
# [7] = ASTX added at day 4 for 2 d during HSC activation (FIG. 10D)
# [8] = ASTX added at day 4 for 2 d during HSC activation (FIG. 8B)
smiles,measurement,setting,value
"CC1=C(/C=C/C(C)=C/C=C/C(C)=C/C=C/C=C(C)/C=C/C=C(C)/C=C/C2=C(C)C(=O)C(O)CC2(C)C)C(C)(C)CC(O)C1=O (centres unmarked) [ASTX, astaxanthin]",basal levels of α-SMA and Col1A1 expression,[1]; LX-2 cells pretreated with ASTX 12 h (FIG. 13A),repressed
same,α-SMA and Col1A1 expression induced by TGFβ1,"[1]; LX-2 cells, ASTX 12 h, then 3 ng/mL TGFβ1 12 h (FIG. 13A)",attenuated
same,TGFβ1-induced phosphorylation of Smad3,[2]; 25 μM ASTX (FIG. 5A),significantly inhibited
same,nuclear translocation of Smad3,[2]; 25 μM ASTX (FIG. 5B),reduced
same,TGFβ1-mediated induction of α-SMA and Col1A1 mRNA,"[3]; 25 μM ASTX 24 h, then TGFβ1 3 ng/ml 24 h (FIGS. 11A, 11B)",attenuated
same,basal levels of α-SMA and Col1A1 mRNA,"[3]; 25 μM ASTX (FIGS. 11A, 11B)",attenuated
same,HDAC2 protein level,[4]; [7],minimally altered
same,decrease of HDAC3 and 4 protein levels,[4]; [7],~50%
same,decrease of HDAC9 protein level,[4]; [7],~70%
same,mRNA levels of HDAC9,[4]; aHSCs incubated with ASTX for 2 d (FIG. 10F),significantly repressed
same,mRNA levels of MEF2 isoforms,[4]; aHSCs incubated with ASTX for 2 d (FIG. 10G),significantly repressed
same,"induction of MEF2a, 2c and 2d mRNA","[4]; during HSC activation, ASTX for 2 d from day 4 (FIG. 10E)",significantly attenuated
same,HDAC9 mRNA induction,[4]; during activation of qHSCs (FIG. 10B),significantly decreased
same,protein levels of α-SMA induced by TGFβ1,[5],significantly decreased
same,NOX2 mRNA,[6]; [8],decreased
same,NOX4 mRNA,[6]; [8],significantly increased
same,protein levels of α-SMA,[6]; ASTX for 2 days during activation (FIG. 7C),noticeably decreased
same,cytoplasmic lipid droplets,"[6]; day 6, cells treated with ASTX for 2-6 days (FIG. 7A)",more lipid droplets than controls
same,cell morphology vs control,"[6]; days 2 and 4 of activation, 25 μM ASTX (FIG. 7A)",no noticeable differences
same,α-SMA and Col1A1 mRNA,"[6]; during activation of qHSCs, 25 μM ASTX (FIG. 7B)",significantly decreased
